Calls of active or inactive are those of the source. The calls are words filed in the database; no cut-off is given here.
Key:
[1] = Induction of cell cycle arrest in human H1975-TM cells assessed as accumulation at S phase at 250 nM measured after 24 hrs by RNase A/propidium iodide staining based flow cytometric analysis (reference value: 18.1 %); type: functional
[2] = Toxicity in BALB/c mouse xenografted with human H1975-TM cells assessed as appearance of lesions in kidney at 25 to 100 mg/kg, po measured after 25 days by hematoxylin-eosin staining based analysis; type: organism-based; conditions: in vivo, 600 h, dose 25-100 mg/kg, time 25 day
[3] = target: Epidermal growth factor receptor (Homo sapiens, UniProt P00533, L858R)
[4] = Induction of cell cycle arrest in human H1975-TM cells assessed as accumulation at G2/M phase at 50 nM measured after 24 hrs by RNase A/propidium iodide staining based flow cytometric analysis (reference value: 17.6 %); type: functional
H1975-TM = experiment: Downregulation of EGFR phosphorylation in human H1975-TM cells at 50 to 1000 nM measured after 24 hrs by Western blot analysis; type: functional, cell-based; conditions: dose 50-1000 nM
[5] = Induction of apoptosis in human H1975-TM cells assessed as apoptotic cells at 50 nM measured after 24 by Annexin V-FITC and propidium iodide staining based flow cytometric analysis (reference value: 7.08 %); type: functional; conditions: time 24 hrs
[6] = Induction of cell cycle arrest in human H1975-TM cells assessed as accumulation at G2/M phase at 250 nM measured after 24 hrs by RNase A/propidium iodide staining based flow cytometric analysis (reference value: 17.6 %); type: functional
[7] = Tmax in Sprague-Dawley rat at 5 mg/kg, iv measured upto 24 hrs by HPLC-MS/MS analysis; type: ADME, organism-based; conditions: in vivo
[8] = Inhibition of colony formation in human H1975-TM cells at 250 nM incubated for 10 days by crystal violet staining based analysis; type: functional; conditions: time 10 day
NCI-H1975 = experiment: Antiproliferative activity against human NCI-H1975 cells assessed as inhibition of cell growth measured after 72 hrs by CCK8 assay; type: functional, cell-based; conditions: NCI-H1975, 72 h

Sequence of Epidermal growth factor receptor (P00533 25-1210 L858R limits assumed): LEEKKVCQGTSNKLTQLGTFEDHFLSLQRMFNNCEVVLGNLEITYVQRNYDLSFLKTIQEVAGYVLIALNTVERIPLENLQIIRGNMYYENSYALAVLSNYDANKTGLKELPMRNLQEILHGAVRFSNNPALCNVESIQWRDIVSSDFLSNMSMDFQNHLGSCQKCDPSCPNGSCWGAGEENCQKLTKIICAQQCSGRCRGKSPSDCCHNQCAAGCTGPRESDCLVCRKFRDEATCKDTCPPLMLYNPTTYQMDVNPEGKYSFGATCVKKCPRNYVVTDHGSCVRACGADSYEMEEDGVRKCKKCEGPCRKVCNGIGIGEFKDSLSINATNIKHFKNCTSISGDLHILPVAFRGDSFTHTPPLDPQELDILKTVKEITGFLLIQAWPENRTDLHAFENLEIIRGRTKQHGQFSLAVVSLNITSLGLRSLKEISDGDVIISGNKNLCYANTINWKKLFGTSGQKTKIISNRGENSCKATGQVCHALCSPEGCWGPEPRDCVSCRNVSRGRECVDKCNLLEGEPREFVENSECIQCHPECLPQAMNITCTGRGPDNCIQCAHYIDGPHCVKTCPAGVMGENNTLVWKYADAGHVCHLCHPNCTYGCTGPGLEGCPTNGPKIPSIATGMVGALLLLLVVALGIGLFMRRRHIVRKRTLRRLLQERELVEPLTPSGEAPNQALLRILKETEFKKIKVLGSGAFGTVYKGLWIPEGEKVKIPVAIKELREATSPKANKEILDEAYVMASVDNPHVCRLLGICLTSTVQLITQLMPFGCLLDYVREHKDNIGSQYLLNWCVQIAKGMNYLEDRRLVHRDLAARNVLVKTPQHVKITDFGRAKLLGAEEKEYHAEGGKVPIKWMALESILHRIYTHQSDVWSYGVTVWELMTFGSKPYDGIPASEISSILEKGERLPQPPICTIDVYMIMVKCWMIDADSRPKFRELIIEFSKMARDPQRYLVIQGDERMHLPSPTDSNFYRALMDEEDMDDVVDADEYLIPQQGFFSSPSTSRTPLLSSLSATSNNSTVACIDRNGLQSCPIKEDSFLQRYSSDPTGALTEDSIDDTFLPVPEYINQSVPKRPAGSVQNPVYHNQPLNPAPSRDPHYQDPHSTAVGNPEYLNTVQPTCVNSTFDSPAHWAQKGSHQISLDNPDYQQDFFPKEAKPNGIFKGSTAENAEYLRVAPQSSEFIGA

With `CCS(=O)(=O)N1CCC(c2nc(-c3ccc(F)cc3)c(-c3ccnc(Nc4ccc5c(ccn5CCN(C)C)c4)n3)s2)CC1` the Activity [1] was 15.7%, the Activity [2] was “Non-Toxic” and the IC50 [3] was 0.003 µM. The Activity [4] was 14.4%, the Activity (H1975-TM) was “Active” and the Activity [5] was 19.07%. For the same compound, the Activity [6] was 14%, the Tmax [7] was 4.8 min and the “inhibition (INH)” value [8] was 100%. For the same compound, the IC50 (NCI-H1975) was 0.21 µM.
